Test results reported in patent publication US6413734B1, “Method for judging effectiveness of drug having protease inhibitory activity” (Fuji Photo Film Co., LTD, priority 1999, dated 2002).

What was measured:
[1] = tested on: Protease activity of breast cancer specimens; experiment: Protease activity measurement of frozen breast cancer slices on gelatin thin membranes containing a matrix metalloproteinase inhibitor; assay type: biochemical, human; details: 20 breast cancer specimens; inhibitor contained in gelatin thin membrane; 37° C., 16 hours
Procedure: A breast cancer specimen, which was extracted by surgical operation and frozen, was sliced at −25° C. into slices having a thickness of 4 μm by using a cryostat, and adhered to a gelatin thin membrane disclosed in WO97/32035. The thickness of gelatin was 7 μm. This gelatin membrane was incubated at 37° C. for 16 hours under 100% of relative humidity, and then dried in air. A solution obtained by mixing a solution in which Ponceau 3R was dissolved at a concentration of 0.8% in 6% trichloroacetic acid aqueous solution and ethanol at a volume ratio of 3:7 was used as a staining solution. The membrane was immersed in the solution at room temperature for 4 minutes for staining. After the membrane was washed with water for 10 minutes, the membrane was then immersed in a Mayer's hematoxylin solution for 2 minutes for nuclear staining, and further washed with water for 10 minutes and dried in air. After the drying, a Cover Aid Film (Sakura Seiki Co., Ltd.) was adhered to the membrane using xylene to enclose the breast cancer slice. The film was held on a plastic mount and observed under an optical microscope. […]
Protease activity of breast cancer specimens, which were extracted by surgical operation and then frozen, was measured in the same manner as Example 1 using gelatin thin membranes containing a matrix metalloproteinase inhibitor (1,10-phenanthroline) disclosed in WO97/32035. […]

[2] = tested on: protease activity of breast cancer specimen; experiment: Gelatin digestion by breast cancer specimen collected by paracentesis and suction, pretreated with TIMP-1 and TIMP-2, on gelatin thin membrane; assay type: cell-based, human; details: one breast cancer specimen suspended in buffer with 10 μg/ml of TIMP-1 and TIMP-2 together; 37° C., 16 hours
Procedure: Abreast cancer specimen collected by paracentesis and suction was suspended in a phosphate buffer containing 0.5% of polyvinylpyrrolidone, and adhered to a gelatin thin membrane disclosed in WO97/32035 by using a cytospin apparatus of Shandon Co., Ltd. at a speed of 400 rpm. The membrane thickness of gelatin was 7 μm. The gelatin membrane was incubated at 37° C. for 16 hours under 100% of relative humidity, and then dried in air. A solution in which Ponceau 3R was dissolved at a concentration of 0.8% in 6% trichloroacetic acid aqueous solution was used as a staining solution. The membrane was immersed in the solution at room temperature for 20 seconds for staining. […]
A breast cancer specimen collected by paracentesis and suction was suspended in a phosphate buffer containing 0.5% of polyvinylpyrrolidone and 10 μg/ml of TIMP-1 (tissue inhibitor of metalloproteinase-1) and TIMP-2, and adhered to a gelatin thin membrane disclosed in WO97/32035 by using a cytospin apparatus of Shandon Co., Ltd. at a speed of 400 rpm. […] When traces of digestion were detected in the same manner except for the treatments with TIMP-1 and TIMP-2 as a control, presence of distinct traces of digestion was observed.

Compound: c1cnc2c(c1)ccc1cccnc12 [1,10-phenanthroline]
- Protease activity (traces of digestion on gelatin thin membrane) [1]: suppressed in all specimens

Compound: TIMP-1: tissue inhibitor of metalloproteinase-1
- Gelatin digestion on sites where the cancer cells were present [2]: not observed
